This note sets out measurements from paper PMC11642981, “Bioguided Identification of Polymethoxyflavones as Novel Vascular CaV1.2 Channel Blockers from Citrus Peel” (Molecules, 2024).

As usually defined, the IC50 is the concentration needed to halve the response being measured.

Like-named read-outs stand apart in the source and are kept apart here.

What all share (type): cell-based
In experiment [1] the target is T1, CaV1.2 channel (α1C subunit) (Rattus norvegicus, UniProt P22002).
T1 construct: gene Cacna1c; native channel in freshly isolated rat tail artery myocytes
T1 sequence (P22002 whole entry): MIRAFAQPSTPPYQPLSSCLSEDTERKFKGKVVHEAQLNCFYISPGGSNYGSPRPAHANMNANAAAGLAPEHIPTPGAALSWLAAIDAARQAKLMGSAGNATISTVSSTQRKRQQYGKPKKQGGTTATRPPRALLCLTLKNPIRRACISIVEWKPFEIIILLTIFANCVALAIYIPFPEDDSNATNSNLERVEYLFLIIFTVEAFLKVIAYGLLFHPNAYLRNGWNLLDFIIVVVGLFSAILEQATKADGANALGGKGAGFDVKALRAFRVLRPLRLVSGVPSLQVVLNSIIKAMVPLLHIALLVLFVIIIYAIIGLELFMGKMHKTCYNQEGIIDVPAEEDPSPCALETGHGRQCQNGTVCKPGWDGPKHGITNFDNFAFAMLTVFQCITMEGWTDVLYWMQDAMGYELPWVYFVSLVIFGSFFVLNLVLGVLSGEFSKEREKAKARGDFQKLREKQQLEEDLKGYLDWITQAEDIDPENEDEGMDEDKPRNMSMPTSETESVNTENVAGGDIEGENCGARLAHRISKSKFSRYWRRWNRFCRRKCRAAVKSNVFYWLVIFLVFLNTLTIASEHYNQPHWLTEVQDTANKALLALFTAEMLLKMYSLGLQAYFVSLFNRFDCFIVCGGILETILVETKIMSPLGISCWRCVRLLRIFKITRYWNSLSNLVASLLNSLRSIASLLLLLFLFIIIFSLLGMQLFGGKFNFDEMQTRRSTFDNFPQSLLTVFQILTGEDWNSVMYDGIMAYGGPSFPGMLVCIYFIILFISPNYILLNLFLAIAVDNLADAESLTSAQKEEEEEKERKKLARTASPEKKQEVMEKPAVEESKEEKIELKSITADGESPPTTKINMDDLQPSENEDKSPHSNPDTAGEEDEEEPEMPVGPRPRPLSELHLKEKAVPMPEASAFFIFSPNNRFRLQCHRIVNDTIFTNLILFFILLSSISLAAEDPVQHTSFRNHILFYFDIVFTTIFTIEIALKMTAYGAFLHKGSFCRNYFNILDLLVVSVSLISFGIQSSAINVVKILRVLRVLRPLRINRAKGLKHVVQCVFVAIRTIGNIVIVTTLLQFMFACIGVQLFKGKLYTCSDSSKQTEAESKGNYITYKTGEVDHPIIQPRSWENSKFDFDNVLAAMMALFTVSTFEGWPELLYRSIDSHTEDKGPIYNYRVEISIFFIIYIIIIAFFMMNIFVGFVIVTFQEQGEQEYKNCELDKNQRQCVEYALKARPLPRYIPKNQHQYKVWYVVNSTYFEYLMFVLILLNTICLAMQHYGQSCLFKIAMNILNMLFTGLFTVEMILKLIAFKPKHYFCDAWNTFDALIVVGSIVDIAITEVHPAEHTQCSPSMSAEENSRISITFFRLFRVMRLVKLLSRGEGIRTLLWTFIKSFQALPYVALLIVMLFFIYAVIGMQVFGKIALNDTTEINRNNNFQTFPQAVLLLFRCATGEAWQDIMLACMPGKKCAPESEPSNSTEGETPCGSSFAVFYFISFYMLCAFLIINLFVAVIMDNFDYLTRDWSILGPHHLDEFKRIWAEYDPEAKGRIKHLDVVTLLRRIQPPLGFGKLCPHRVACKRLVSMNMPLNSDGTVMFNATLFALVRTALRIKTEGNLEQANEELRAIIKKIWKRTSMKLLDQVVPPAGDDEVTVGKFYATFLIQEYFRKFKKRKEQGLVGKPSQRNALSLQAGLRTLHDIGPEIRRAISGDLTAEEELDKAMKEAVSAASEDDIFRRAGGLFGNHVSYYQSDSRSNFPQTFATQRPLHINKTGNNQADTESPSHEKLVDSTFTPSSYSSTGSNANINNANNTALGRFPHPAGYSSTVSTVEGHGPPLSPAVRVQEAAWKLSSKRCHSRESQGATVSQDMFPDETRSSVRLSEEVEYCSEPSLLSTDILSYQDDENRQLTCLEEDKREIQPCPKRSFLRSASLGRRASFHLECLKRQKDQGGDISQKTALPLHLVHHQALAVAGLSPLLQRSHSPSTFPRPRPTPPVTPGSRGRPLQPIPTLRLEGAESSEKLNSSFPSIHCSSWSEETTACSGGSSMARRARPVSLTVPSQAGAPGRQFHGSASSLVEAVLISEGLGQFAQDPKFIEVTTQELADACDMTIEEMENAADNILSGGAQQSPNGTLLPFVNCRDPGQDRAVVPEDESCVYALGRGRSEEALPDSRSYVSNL
Put plainly: whole-cell patch-clamp, complete block of IBa1.[…] at […]. (In general: In patch-clamp work, channel activity is measured electrically.)

For experiment [2], the target named is T1, CaV1.2 channel (α1C subunit). Put plainly: whole-cell patch-clamp, Ba2+ current (IBa1.[…]). As to conditions: read-out: % reduction in current amplitude at 100 μM.
Experiment [3] has the same target. Put plainly: whole-cell patch-clamp, Ba2+ current (IBa1.[…]).

Take `COC(=O)C1=C(C)NC(C)=C(C(=O)OC)C1c1ccccc1[N+](=O)[O-]` [nifedipine]: the “whole-cell patch-clamp, complete block of IBa1.2 at 10 μM” value in experiment [1] is listed as 10 µM (completely blocked IBa1.2). In the case of `COc1ccc(-c2cc(=O)c3c(OC)c(OC)c(OC)c(OC)c3o2)cc1OC` [nobiletin], the inhibition at 100 µM in experiment [2] stood at 50%. As to `COc1ccc(-c2cc(=O)c3c(OC)c(OC)c(OC)cc3o2)cc1` [scutellarein tetramethyl ether], the 50% inhibitory concentration (IC50) in experiment [3] is about 33.1 µM.

Regarding `COc1ccc(-c2cc(=O)c3c(OC)c(OC)c(OC)cc3o2)cc1OC` [sinensetin], in experiment [2], the inhibition at 100 µM is 50%. `COc1ccc(-c2cc(=O)c3c(OC)c(OC)c(OC)c(OC)c3o2)cc1` [tangeretin]: in experiment [3] (read-out: IC50 (converted)), the 50% inhibitory concentration (IC50) is about 66.1 µM.
